{
  "source": "patent US20080152589A1",
  "about": "“Diagnostics and Therapeutics of Neurological Disease” (priority 2006, published 2008)",
  "key": {"[1]": {"test": "self-administered questionnaire on lithium-induced side-effects, stratified by GSK3B and MAPT haplotype", "assay_type": "in vivo, human", "details": "for Odds Ratio, hand tremor present vs absent (pooled High GSKΔexon9 and Low GSKΔexon9+11 haplotypes vs others): lithium treatment; for mean overall side-effect score (SE score): patients administered lithium, 24 items, maximum total score 96", "method": "Participants (n=84) suffering from a neurological disease who had been administered lithium as a therapeutic were assessed for the prevalence and pattern of lithium-induced side-effects using a self-administered questionnaire. This questionnaire was a modified version of the data collection form from a clinical trial, asking participants to rate 24 side-effect items as ‘Not present’, ‘Mild’, ‘Moderate’, ‘Severe’ and ‘Very Severe’. The 24 items listed include: nausea, vomiting, diarrhea, constipation, weight gain, weight loss, dizziness or light-headedness, blurred vision, hand tremor, muscle weakness, slurred speech, lack of coordination or unsteady gait, poor concentration mental slowing or confusion, forgetfulness or difficulty with memory/recall, drowsiness or sleepiness, worsening mood symptoms, skin rash, hair loss, thirst, dry mouth, metallic taste in mouth, loss of ability to taste food, need to pass urine much more frequently or more urgently, urinary incontinence. An overall side-effect score (SE score) was calculated for each patient based on the above 24 items and their respective grading. A score of zero was given for an absent side effect and increased to a score of 4 for a very severe side effect to give a maximum total score of 96 for each patient.\nEach individual was genotyped and classified as having 0, 1 or 2 copies of the disease ‘risk’ GSK3B haplotypes (A-T-C, T-C-C and A-C-T) based on the three functional polymorphisms rs375557, rs334558 and rs6438552. In the subset of patients having a GSK-3B ‘risk’ haplotype and at least one H2 MAPT haplotype, a lower SE score was observed (12.3±2.2) compared to patients with no ‘risk’ haplotype (14.6±2.0).\nThe relationship between the ‘risk’ haplotypes in GSK3B and common side effect of lithium therapy, hand tremor, was then examined, the results of which are shown in Table 8. […] This information is pertinent, because lithium, which is a therapeutic agent for a number of disorders including bipolar affective disorders and Alzheimer's disease, has significant side effects. Accordingly, assays that detect the presence of a GSK-3B ‘risk’ haplotype optionally combined with detection of a MAPT H2 haplotype are useful for determining subjects likely to respond to treatment and/or that are unlikely to develop a side-effect as a result of treatment."}, "[2]": {"target": "endogenous Tau of COS-7 cells", "test": "cell-based or functional assay"}},
  "data": [
    {"compound": "[Li]", "note": "[lithium]", "values": [
      {"measurement": "Odds Ratio, hand tremor present vs absent (pooled High GSKΔexon9 and Low GSKΔexon9+11 haplotypes vs others)", "setting": "[1]; MAPT H1/H1", "result": 1.32},
      {"measurement": "Odds Ratio, hand tremor present vs absent (pooled High GSKΔexon9 and Low GSKΔexon9+11 haplotypes vs others)", "setting": "[1]; MAPT H1/H2 + H2/H2 (at least one H2 haplotype)", "result": 0.24},
      {"measurement": "Odds Ratio, hand tremor present vs absent (pooled High GSKΔexon9 and Low GSKΔexon9+11 haplotypes vs others)", "setting": "[1]; all MAPT haplotypes", "result": 0.57},
      {"measurement": "mean overall side-effect score (SE score)", "setting": "[1]; GSK-3B 'risk' haplotype and at least one H2 MAPT haplotype", "result": "12.3±2.2"},
      {"measurement": "mean overall side-effect score (SE score)", "setting": "[1]; no 'risk' haplotype", "result": "14.6±2.0"}
    ]},
    {"compound": "GSKΔexon9+11 (GSK-3β splice isoform lacking exons 9 and 11) (from UniProt P49841 1-420) (enzyme)", "values": [
      {"measurement": "levels of Tau [pSer396] by ELISA in transfected COS-7 cells, compared with the other GSK-3β cDNAs", "setting": "[2]", "result": 2.5, "unit": "fold"}
    ]}
  ]
}
